Laboratory results from US7029652B2, “Method of treating tumors” (The Regents of the University of California, priority 1998, dated 2006).

How the values were obtained:
Assay type in all cases: in vivo, mice
HBT 3477 tumors [1] = assay: Tumoricidal effect in HBT 3477 breast cancer xenografts
Experimental: Mice. Female athymic Balb/c nu/nu mice (7–10 week old; Harlan Sprague Dawley, Inc., Frederick, Md.) were maintained according to University of California animal care guidelines. HBT 3477 cells (3.0×10^6), harvested in log phase, were injected subcutaneously into one side of the abdomen for therapy studies (except where noted) and into both sides for immunopathology studies. Injection of RIT was by tail vein and cyclo-(Arg-Gly-Asp-D-Phe-[N-Me]-Val) was delivered by intraperitoneal (i.p.) injection. “Day 0” was designated as the time of RIT injection or, for first cRGD pentapeptide injection, for cRGD pentapeptide only group. Mice were sacrificed by cervical dislocation for immunopathology studies at the times indicated, when tumor burden exceeded allowed limits, or at 84 days for therapy studies.
Control (No RIT) Treatment groups.
High Dose RIT Treatment groups.
Low Dose RIT Treatment groups. […] These doses were given on day 0, 1 hour prior to RIT, followed by 5 more doses on days 2, 4, 6, 8, and 10 (30 mice, all with 1 tumor each).
Tumoricidal effect. Tumors were measured with calipers in 3 orthogonal diameters 3 times per week. Tumor volume was calculated using the formula for hemiellipsoids (DeNardo et al. Clin. Cancer Res., 3:71–79 (1997)). Initial tumor volume was defined as the volume on the day before treatment. Tumors that completely regressed were considered to have a volume of zero. […] For mice bearing two tumors with differing responses, tumor response was described according to both tumor responses. Mice dying prior to 30 days from toxicity were excluded from tumor response results.
Statistical Analysis. Statistical analysis of mortality data for RIT and CMRIT method treated mice was performed using a Fisher Exact test with StatExact software to determine if mortality was different. Statistical analysis of therapy data was done using a Cochran Mantel Haenszel test to evaluate effect of RIT dose on outcome for RIT and CMRIT method groups. Comparison of cure rates to all other responses for RIT vs. CMRIT method groups was done by Fisher Exact test, with the best tumor response used for 2-tumored animals for statistical purposes. Statistical differences between immunopathology groups at the different time points were assessed by analysis of variance (ANOVA) (Fisher PLSD) using STATview software as appropriate, with p<0.05 considered significant.

HBT 3477 tumors [2] = assay: Microvessel density (CD31) in tumors
Experimental: (§1) Cellular immunopathology groups. Unless otherwise noted, groups consisted of 2 mice, each bearing 2 tumors, for a total of 4 tumors analyzed at each time point. […] The tumors were removed, cut in half, frozen in optimal cutting temperature (O.C.T). medium, and stored at about −70° C. until sectioning (10-μm sections). All time points were evaluated for apoptosis by terminal deoxynucleotidyl transferase-mediated dUTP nick end labeling (TUNEL, Cavrieli, et al. J. Cell Bio., 119: 493–501 (1992)) analysis, and selected time points (untreated, 1,5 and 6 days) were assessed for differences in proliferation rate (Ki67) and microvessel density (CD31).
(§2) Proliferation and microvessel density Analyses. 10-μm sections of tumors from untreated and mice treated with cRGD pentapeptide, RIT and CMRIT method and sacrificed at 1, 5 and 6 days after treatment were fixed for 10 minutes in ice-cold acetone, rinsed in PBS, and briefly incubated in methanol with 0.6% H2O2 (5 minutes). After rinsing in PBS, sections were blocked for 10 minutes with 10% goat serum and 1% bovine serum albumin in PBS. Mouse anti-Ki67 MAb (Pharmingen, clone B56) was applied in blocking solution (6.25 μg/ml) and the slides were incubated at room temperature for 2 hours, followed by rinsing in PBS. Goat anti-mouse rhodamine-labeled or goat anti-mouse Cy-3-labeled antibody was applied (Jackson ImmunoResearch Laboratories, Inc, West Grove, Pa., 1:100) and the slides were incubated for 1 hour at room temperature. After rinsing in PBS the sections were incubated for 1 hour at room temperature with rat anti-mouse CD31 antibody (Pharmingen, 1:100), followed by rinsing in PBS and a subsequent 1 hour incubation with goat anti-rat FITC-labeled antibody (Pharmingen, 1:50). After rinsing in PBS, the slides were counterstained with DAPI (0.4 μg/ml) and mounted in Biomeda gel mount (Fisher) under coverslips. Quantitation of Ki67 was performed using an Olympus microscope at X1000 magnification for assessment of proliferation. The mean total number of Ki67-positive cells/field in a tumor was determined by counts from 6 fields per tumor chosen randomly by DAPI stain. Microvessel density was determined by counting the number of CD31-stained vessels per random field at X400 magnification. Any endothelial cell or cell cluster positive for CD31, which was separate from an adjacent cluster, was counted as one microvessel. Six randomly chosen fields per tumor section were used to establish an average for each tumor. Average microvessel density for a treatment group was determined by averaging the values from 4 tumors/group.

HBT 3477 tumors [3] = assay: Proliferation (Ki67) in tumors
Experimental: as §1, §2

[4] = Day 1, six fields per tumor at 400X
[5] = Day 1, six fields per tumor at 1000X
[6] = combined RIT 200–260 μCi, best response (parentheses)
[7] = combined RIT 200–260 μCi, worst response
[8] = high dose RIT 260 μCi, best response (parentheses)
[9] = high dose RIT 260 μCi, worst response
[10] = low dose RIT, best response (parentheses)

## CC(C)[C@H]1C(=O)N[C@@H](CCCN=C(N)N)C(=O)NCC(=O)N[C@@H](CC(=O)O)C(=O)N[C@H](Cc2ccccc2)C(=O)N1C [cyclo-(Arg-Gly-Asp-D-Phe-[N-Me]-Val)]
HBT 3477 tumors [1]; 6×250 μg doses given every other day, in words
  effect on tumor growth: No apparent effect
HBT 3477 tumors [1]; no RIT, 6 × 250 μg i.p.
  cures: 0%
HBT 3477 tumors [1]; no RIT, worst response
  CR complete regression (number of mice): 0
  NR no regression (number of mice): 18
  PR partial regression (number of mice): 0
HBT 3477 tumors [1]; no RIT, worst response of 2-tumored mice, 84 days
  Cure (number of mice): no cures
HBT 3477 tumors [1]; no RIT, worst response of 2-tumored mice, 84 days, listed as cRGD pentapeptide
  Cure (number of mice): 0
HBT 3477 tumors [2]; [4]
  Microvessel density, average number ± SE of CD31 positive regions: 12 ± 2
HBT 3477 tumors [2]; Day 5
  Microvessel density, average number ± SE of CD31 positive regions: 20 ± 4
HBT 3477 tumors [3]; [5]
  Proliferating cells, average no. of Ki67-positive cells: 14 ± 2 f
HBT 3477 tumors [3]; Day 5
  Proliferating cells, average no. of Ki67-positive cells: 13 ± 1 f

## ^90Y-1,4,7,10-tetraazacyclododecane-N,N′,N″,N′″-tetraacetic acid-peptide-ChL6 [RIT]
HBT 3477 tumors [1]; [6]
  CR complete regression (number of mice): 10
  Cure (number of mice): 9
  NR no regression (number of mice): 0
  PR partial regression (number of mice): 27
HBT 3477 tumors [1]; [7]
  CR complete regression (number of mice): 6
  NR no regression (number of mice): 3
  PR partial regression (number of mice): 29
HBT 3477 tumors [1]; combined low and high dose RIT
  cure rate: 20%
HBT 3477 tumors [1]; combined low and high dose RIT 200–260 μCi, worst response
  Cure (number of mice): 8
HBT 3477 tumors [1]; high dose RIT 260 μCi (CMRIT + cRGD 250 μg × 6), worst response
  Cure (number of mice): 4
HBT 3477 tumors [1]; [8]
  CR complete regression (number of mice): 6
  PR partial regression (number of mice): 16
HBT 3477 tumors [1]; [9]
  CR complete regression (number of mice): 2
  NR no regression (number of mice): 0
  PR partial regression (number of mice): 20
HBT 3477 tumors [1]; high dose RIT (260 μCi)
  cures: 15%
HBT 3477 tumors [1]; low dose RIT 200–230 μCi (CMRIT 200 μCi + cRGD 250 μg × 6), worst response
  Cure (number of mice): 4
HBT 3477 tumors [1]; low dose RIT 200–230 μCi, best response (parentheses)
  Cure (number of mice): 5
HBT 3477 tumors [1]; low dose RIT (200–230 μCi)
  cures: 25%
HBT 3477 tumors [1]; [10]
  NR no regression (number of mice): 0
  PR partial regression (number of mice): 11
HBT 3477 tumors [1]; low dose RIT, worst response
  CR complete regression (number of mice): 4
  NR no regression (number of mice): 3
  PR partial regression (number of mice): 9
HBT 3477 tumors [2]; [4]
  Microvessel density, average number ± SE of CD31 positive regions: 15 ± 1
HBT 3477 tumors [2]; Day 5
  Microvessel density, average number ± SE of CD31 positive regions: 13 ± 1
HBT 3477 tumors [2]; Day 6
  Microvessel density, average number ± SE of CD31 positive regions: 9 ± 1 e
HBT 3477 tumors [3]; [5]
  Proliferating cells, average no. of Ki67-positive cells: 18 ± 1
HBT 3477 tumors [3]; Day 5
  Proliferating cells, average no. of Ki67-positive cells: 13 ± 1 f
HBT 3477 tumors [3]; Day 6
  Proliferating cells, average no. of Ki67-positive cells: 7 ± 1
